From publication PMC12207910 (European journal of pharmaceutical sciences : official …, 2024)
Converted amounts (≈) assume the structure as drawn. Read-outs that look alike come from different tables or passages of the source.

How the values were obtained:
[1] = tested on: Enterococcus faecium (ATCC 27270); assay: microbe, parasite or virus in culture; conditions: ATCC27270, read-out: MIC Enterococcus faecium (ATCC 27270)
[2] = tested on: Staphylococcus pneumoniae (ATCC 49619); assay: microbe, parasite or virus in culture; conditions: ATCC49619, read-out: MIC Staphylococcus pneumoniae (ATCC 49619)
A. fumigatus (Af-293) [3] = assay: microbe, parasite or virus in culture; assay type: cell-based; conditions: Aspergillus fumigatus, read-out: MIC A. fumigatus (Af-293)
A. fumigatus (Af-293) [4] = assay: microbe, parasite or virus in culture; assay type: cell-based, Aspergillus fumigatus; conditions: Aspergillus fumigatus
A. fumigatus (Af-293) [5] = assay: Kill kinetics assay; assay type: cell-based, Aspergillus fumigatus; conditions: MIC and 4×MIC, compared to 3b and 4b

CN[C@H](CC(C)C)C(=O)N[C@H]1C(=O)N[C@@H](CC(N)=O)C(=O)N[C@H]2C(=O)N[C@H]3C(=O)N[C@H](C(=O)N[C@H](C(=O)O)c4cc(O)cc(O)c4-c4cc3ccc4O)[C@H](O)c3ccc(c(Cl)c3)Oc3cc2cc(c3O[C@@H]2O[C@H](CO)[C@@H](O)[C@H](O)[C@H]2O[C@H]2C[C@](C)(N)[C@H](O)[C@H](C)O2)Oc2ccc(cc2Cl)[C@H]1O [Vancomycin]
MIC [1]: 1.5 µg/mL (≈ 1.04 µM)
MIC [2]: 3.1 µg/mL (≈ 2.14 µM)

C[C@@H]1[C@H](O)[C@@H](C)/C=C/C=C/C=C/C=C/C=C/C=C/C=C/[C@H](O[C@@H]2O[C@H](C)[C@@H](O)[C@H](N)[C@@H]2O)C[C@@H]2O[C@](O)(C[C@@H](O)C[C@@H](O)[C@H](O)CC[C@@H](O)C[C@@H](O)CC(=O)O[C@H]1C)C[C@H](O)[C@H]2C(=O)O [Amphotericin B, reference compound]
MIC (A. fumigatus (Af-293) [3]): 0.7 µg/mL (≈ 0.758 µM)
MIC (A. fumigatus (Af-293) [4]; read-out: MIC CaCl2): 0.7 µg/mL (≈ 0.758 µM)
MIC (A. fumigatus (Af-293) [4]; read-out: MIC Control): 0.7 µg/mL (≈ 0.758 µM)
MIC (A. fumigatus (Af-293) [4]; read-out: MIC FBS (25%)): 0.7 µg/mL (≈ 0.758 µM)
MIC (A. fumigatus (Af-293) [4]; read-out: MIC KCl): 0.7 µg/mL (≈ 0.758 µM)
MIC (A. fumigatus (Af-293) [4]; read-out: MIC MgCl2): 1.5 µg/mL (≈ 1.62 µM)
MIC (A. fumigatus (Af-293) [4]; read-out: MIC NH4Cl): 0.7 µg/mL (≈ 0.758 µM)
MIC (A. fumigatus (Af-293) [4]; read-out: MIC NaCl): 0.7 µg/mL (≈ 0.758 µM)
fungicidal effect in kill kinetics (A. fumigatus (Af-293) [5]): mild fungicidal effect
